Values joined by “and” are separate entries in the source; they are usually repeats but may differ in a detail not shown here. Equal values may be shown once. Toxic doses and inconclusive results are not listed. Rule as the data show it: active = T/C of 150% or more; inactive = T/C below 125%.
Tested on: L1210 leukemia ip in BDF1 mice, survival T/C
Assay: NCI In Vivo Anticancer Drug Screen. Data for tumor model L1210 Leukemia (intraperitoneal) in B6D2F1 (BDF1) mice
Conditions: endpoint: mean survival time, higher = longer survival
How it was run: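 Value reflects the ratio of survival in compound-treated mice to survival in vehicle-treated controls, with both groups carrying the same transplanted tumor.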

[1] = dose: 100.0 mg/kg/injection, schedule: Q04DX003 (ip), vehicle: Klucel (hydroxypropylcellulose) (HPC)
[2] = dose: 100.0 mg/kg/injection, schedule: Q04DX003 (ip), vehicle: saline with Tween-80
[3] = dose: 200.0 mg/kg/injection, schedule: Q04DX003 (ip), vehicle: saline with Tween-80
[4] = dose: 400.0 mg/kg/injection, schedule: Q04DX003 (ip), vehicle: saline with Tween-80
[5] = dose: 100.0 mg/kg/injection, schedule: Q04DX003 (ip), vehicle: saline
[6] = dose: 200.0 mg/kg/injection, schedule: Q04DX003 (ip), vehicle: saline
[7] = dose: 400.0 mg/kg/injection, schedule: Q04DX003 (ip), vehicle: saline
[8] = dose: 100.0 mg/kg/injection, schedule: Q01DX001 (ip), vehicle: Klucel (hydroxypropylcellulose) (HPC)
[9] = dose: 200.0 mg/kg/injection, schedule: Q01DX001 (ip), vehicle: Klucel (hydroxypropylcellulose) (HPC)
[10] = dose: 400.0 mg/kg/injection, schedule: Q01DX001 (ip), vehicle: Klucel (hydroxypropylcellulose) (HPC)

Measured: T/C

CCOC(=O)C1(C(=O)OCC)C(C)CC(OCC)N1C(=O)c1cc2c(cc1[N+](=O)[O-])OCO2 (configuration not stated)
inactive: dose: 25.0 mg/kg/injection, schedule: Q04DX003 (ip), vehicle: Klucel (hydroxypropylcellulose) (HPC) 92 % of control | dose: 50.0 mg/kg/injection, schedule: Q04DX003 (ip), vehicle: Klucel (hydroxypropylcellulose) (HPC) 89 % of control | [1] 94 % of control

N#Cc1ccc(C#N)cc1
inactive: dose: 100.0 mg/kg/injection, schedule: Q01DX009 (ip), vehicle: saline with Tween-80 97 % of control | [2] 92 % of control and 95 % of control | dose: 200.0 mg/kg/injection, schedule: Q01DX009 (ip), vehicle: saline with Tween-80 104 % of control | [3] 106 % of control and 86 % of control | dose: 400.0 mg/kg/injection, schedule: Q01DX009 (ip), vehicle: saline with Tween-80 115 % of control | [4] 100 % of control and 104 % of control

COc1ccc(NC(=O)/C=C/C(=O)Nc2ccc(OC)cc2)cc1
inactive: [2] 100 % of control | [3] 112 % of control | [4] 100 % of control

O=C(O)CNCc1ccccc1
inactive: [5] 102 % of control | [6] 96 % of control | [7] 96 % of control

CCS(=O)(=O)CS(=O)(=O)Cc1ccccc1
inactive: dose: 75.0 mg/kg/injection, schedule: Q04DX003 (ip), vehicle: saline 94 % of control | dose: 150.0 mg/kg/injection, schedule: Q04DX003 (ip), vehicle: saline 95 % of control | dose: 300.0 mg/kg/injection, schedule: Q04DX003 (ip), vehicle: saline 95 % of control

O=C(O)c1cc(O)ccc1O
inactive: [2] 100 % of control | [3] 97 % of control

CC(=O)Oc1cc(C)c2c(c1C)C1OC(=O)C(C)C1CC2 (configuration not stated)
inactive: dose: 100.0 mg/kg/injection, schedule: Q01DX001 (ip), vehicle: other 98 % of control | dose: 200.0 mg/kg/injection, schedule: Q01DX001 (ip), vehicle: other 98 % of control | dose: 400.0 mg/kg/injection, schedule: Q01DX001 (ip), vehicle: other 97 % of control

CC(=O)NCC1CCC(CNC(C)=O)CC1 (configuration not stated)
inactive: dose: 100.0 mg/kg/injection, schedule: Q01DX009 (ip), vehicle: saline 103 % of control | [5] 100 % of control | dose: 200.0 mg/kg/injection, schedule: Q01DX009 (ip), vehicle: saline 107 % of control | [6] 105 % of control | dose: 400.0 mg/kg/injection, schedule: Q01DX009 (ip), vehicle: saline 95 % of control | [7] 100 % of control

N#Cc1cn[nH]c1N
inactive: dose: 100.0 mg/kg/injection, schedule: Q01DX001 (ip), vehicle: saline with Tween-80 98 % of control | dose: 200.0 mg/kg/injection, schedule: Q01DX001 (ip), vehicle: saline with Tween-80 95 % of control | dose: 400.0 mg/kg/injection, schedule: Q01DX001 (ip), vehicle: saline with Tween-80 103 % of control

c1ccc(CN(CCNc2ccccc2)c2ccccc2)cc1
inactive: dose: 50.0 mg/kg/injection, schedule: Q01DX009 (ip), vehicle: water 97 % of control | dose: 100.0 mg/kg/injection, schedule: Q01DX009 (ip), vehicle: water 94 % of control

CS(=O)(=O)Oc1ccccc1N(S(C)(=O)=O)S(C)(=O)=O
inactive: [8] 107 % of control | [1] 107 % of control | [9] 110 % of control | dose: 200.0 mg/kg/injection, schedule: Q04DX003 (ip), vehicle: Klucel (hydroxypropylcellulose) (HPC) 107 % of control | [10] 104 % of control | dose: 400.0 mg/kg/injection, schedule: Q04DX003 (ip), vehicle: Klucel (hydroxypropylcellulose) (HPC) 102 % of control

COC(=O)C(C(=O)OC)c1c(N)n(C)c(=O)n(C)c1=O
inactive: [8] 93 % of control | [9] 100 % of control | [10] 100 % of control

O=C(Nc1ccc(S(=O)(=O)NC2CCCCC2)cc1)OC1CCCC1
inactive: dose: 100.0 mg/kg/injection, schedule: Q01DX001 (ip), vehicle: carboxymethylcellulose (CMC) 95 % of control | dose: 200.0 mg/kg/injection, schedule: Q01DX001 (ip), vehicle: carboxymethylcellulose (CMC) 94 % of control | dose: 400.0 mg/kg/injection, schedule: Q01DX001 (ip), vehicle: carboxymethylcellulose (CMC) 97 % of control

O=C=NCCCl
inactive: dose: 0.5 mg/kg/injection, schedule: Q01DX001 (ip), vehicle: propolene glycol 101 % of control | dose: 1.0 mg/kg/injection, schedule: Q01DX001 (ip), vehicle: propolene glycol 90 % of control | dose: 2.0 mg/kg/injection, schedule: Q01DX001 (ip), vehicle: propolene glycol 89 % of control | dose: 3.0 mg/kg/injection, schedule: Q01DX001 (ip), vehicle: propolene glycol 89 % of control | dose: 4.0 mg/kg/injection, schedule: Q01DX001 (ip), vehicle: propolene glycol 92 % of control | dose: 6.0 mg/kg/injection, schedule: Q01DX001 (ip), vehicle: propolene glycol 89 % of control | dose: 6.5 mg/kg/injection, schedule: Q01DX001 (ip), vehicle: olive oil, sesame oil, peanut oil 98 % of control | dose: 8.0 mg/kg/injection, schedule: Q01DX001 (ip), vehicle: propolene glycol 92 % of control | dose: 12.5 mg/kg/injection, schedule: Q01DX001 (ip), vehicle: propolene glycol 95 % of control | dose: 12.5 mg/kg/injection, schedule: Q01DX009 (sc), vehicle: olive oil, sesame oil, peanut oil 95 % of control | dose: 13.0 mg/kg/injection, schedule: Q01DX001 (ip), vehicle: olive oil, sesame oil, peanut oil 104 % of control | dose: 25.0 mg/kg/injection, schedule: Q01DX001 (ip), vehicle: propolene glycol 91 % of control | dose: 25.0 mg/kg/injection, schedule: Q01DX009 (sc), vehicle: olive oil, sesame oil, peanut oil 103 % of control | dose: 26.0 mg/kg/injection, schedule: Q01DX001 (ip), vehicle: olive oil, sesame oil, peanut oil 96 % of control | dose: 40.0 mg/kg/injection, schedule: Q01DX001 (ip), vehicle: olive oil, sesame oil, peanut oil 102 % of control | dose: 50.0 mg/kg/injection, schedule: Q01DX009 (sc), vehicle: olive oil, sesame oil, peanut oil 97 % of control | dose: 60.0 mg/kg/injection, schedule: Q01DX001 (ip), vehicle: olive oil, sesame oil, peanut oil 98 % of control | dose: 93.0 mg/kg/injection, schedule: Q01DX001 (ip), vehicle: olive oil, sesame oil, peanut oil 100 % of control | dose: 100.0 mg/kg/injection, schedule: Q04DX003 (sc), vehicle: olive oil, sesame oil, peanut oil 97 % of control | dose: 125.0 mg/kg/injection, schedule: Q01DX001 (ip), vehicle: olive oil, sesame oil, peanut oil 106 % of control | dose: 187.0 mg/kg/injection, schedule: Q01DX001 (ip), vehicle: olive oil, sesame oil, peanut oil 98 % of control | dose: 250.0 mg/kg/injection, schedule: Q01DX001 (ip), vehicle: olive oil, sesame oil, peanut oil 98 % of control | dose: 250.0 mg/kg/injection, schedule: Q01DX001 (ip), vehicle: propolene glycol 113 % of control | dose: 375.0 mg/kg/injection, schedule: Q01DX001 (ip), vehicle: olive oil, sesame oil, peanut oil 104 % of control | dose: 500.0 mg/kg/injection, schedule: Q01DX001 (ip), vehicle: olive oil, sesame oil, peanut oil 93 % of control

CN1C2CCCC1CC(O)(c1ccccc1)C2 (configuration not stated)
inactive: dose: 12.5 mg/kg/injection, schedule: Q01DX001 (ip), vehicle: Klucel (hydroxypropylcellulose) (HPC) 96 % of control | dose: 25.0 mg/kg/injection, schedule: Q01DX001 (ip), vehicle: Klucel (hydroxypropylcellulose) (HPC) 99 % of control | dose: 50.0 mg/kg/injection, schedule: Q01DX001 (ip), vehicle: Klucel (hydroxypropylcellulose) (HPC) 102 % of control

CC(C)c1ccc(-n2c(=S)[nH]c3ccccc3c2=O)cc1
inactive: dose: 100.0 mg/kg/injection, schedule: Q04DX002 (ip), vehicle: saline 107 % of control | dose: 200.0 mg/kg/injection, schedule: Q04DX002 (ip), vehicle: saline 93 % of control | dose: 400.0 mg/kg/injection, schedule: Q04DX002 (ip), vehicle: saline 104 % of control

CN(C)CCCNc1c2ccc(Cl)cc2nc2ccc(O)cc12
inactive: dose: 12.5 mg/kg/injection, schedule: Q04DX002 (ip), vehicle: saline 107 % of control | dose: 25.0 mg/kg/injection, schedule: Q04DX002 (ip), vehicle: saline 115 % of control

CCCCCCC(C)NCC(C)(C)OC(=O)c1ccc(N)cc1 (configuration not stated)
inactive: dose: 75.0 mg/kg/injection, schedule: Q01DX001 (ip), vehicle: other 93 % of control | dose: 150.0 mg/kg/injection, schedule: Q01DX001 (ip), vehicle: other 101 % of control | dose: 300.0 mg/kg/injection, schedule: Q01DX001 (ip), vehicle: other 93 % of control
